Calls of active or inactive are those of the source. The rule behind the calls is not given here.
Key:
[1] = tested on: HCT-116; test: Cytotoxicity against human HCT-116 cells assessed as cell growth inhibition incubated for 72 hrs by CCK-8 assay; format: functional
[2] = biological target: Tyrosyl-DNA phosphodiesterase 1 (Homo sapiens) (UniProt Q9NUW8); test: Inhibition of TDP1 (unknown origin) using (5'-FAM-AGGATCTAAAAGACTT-BHQ-3') as substrate at 100 uM by fluorescence assay
[3] = tested on: HCT-116; test: Cytotoxicity against human HCT-116 cells assessed as cell killing at 0.5 uM incubated for 72 hrs by CCK-8 assay relative to control; format: functional
[4] = tested on: HCT-116; test: Induction of cell cycle arrest in human HCT-116 cells assessed as accumulation of cells at G0/G1 phase at 5 uM incubated for 24 hrs in presence of IR-4 Gy by PI staining based flow cytometric analysis (reference value: 56.89%); format: functional
[5] = tested on: HCT-116; test: Induction of ROS generation in human HCT-116 cells at 5 to 10 uM by DCFH-DA staining based ELISA; format: functional, cell-based; details: dose 5-10 µM
[6] = tested on: HCT-116; test: Induction of ROS generation in human HCT-116 cells assessed as fold increase in ROS level at 10 uM in presence of IR 4 Gy by DCFH-DA staining based ELISA; format: functional
[7] = tested on: HCT-116; test: Induction of apoptosis in human HCT-116 cells assessed as late apoptotic cells at 5 uM incubated for 24 hrs in presence of IR-4 Gy by AnnexinV-FITC/PI staining based flow cytometry (reference value: 0.93%); format: functional
[8] = tested on: HCT-116; test: Induction of apoptosis in human HCT-116 cells assessed as early apoptotic cells at 5 uM incubated for 24 hrs by AnnexinV-FITC/PI staining based flow cytometry (reference value: 1.41%); format: functional
[9] = tested on: HCT-116; test: Induction of DNA damage in human HCT-116 cells assessed as increase in gamma-H2AX fluorescence intensity at 10 uM incubated for 6 hrs in presence of IR 4 Gy by DAPI staining based immunofluorescence microscopic analysis; format: functional, cell-based
[10] = tested on: HCT-116; test: Induction of apoptosis in human HCT-116 cells assessed as viable cells at 5 uM incubated for 24 hrs by AnnexinV-FITC/PI staining based flow cytometry (reference value: 98.05%); format: functional; details: read-out: Activity
[11] = tested on: HCT-116; test: Induction of cell cycle arrest in human HCT-116 cells assessed as accumulation of cells at G0/G1 phase at 5 uM incubated for 24 hrs by PI staining based flow cytometric analysis (reference value: 58.75%); format: functional
[12] = tested on: HCT-116; test: Induction of apoptosis in human HCT-116 cells assessed as late apoptotic cells at 5 uM incubated for 24 hrs by AnnexinV-FITC/PI staining based flow cytometry (reference value: 0.41%); format: functional
[13] = tested on: HCT-116; test: Radiosensitization activity in human HCT-116 cells incubated for 24 hrs in presence of IR-2 Gy by crystal violet staining based colony formation assay; format: functional, cell-based; details: dose 0.1-0.5 µM
[14] = tested on: HCT-116; test: Cytotoxicity against human HCT-116 cells assessed as cell survival at 0.5 uM incubated for 72 hrs by CCK-8 assay relative to control; format: functional; details: read-out: Activity
[15] = tested on: HCT-116; test: Radiosensitization activity in human HCT-116 cells assessed as combination index at 0.1 to 0.5 uM incubated for 24 hrs in presence of IR-2 Gy by crystal violet staining based colony formation assay; format: functional; details: dose 0.1-0.5 µM
[16] = tested on: HCT-116; test: Radiosensitizing activity in human HCT-116 cells assessed as reduction in cell viability at 0.5 uM co-treated with IR-2 Gy incubated for 72 hrs by CCK-8 assay (reference value: 37%); format: functional
[17] = tested on: HCT-116; test: Induction of cell cycle arrest in human HCT-116 cells assessed as accumulation of cells at G2/M phase at 5 uM incubated for 24 hrs by PI staining based flow cytometric analysis (reference value: 23.42 %); format: functional
[18] = tested on: HCT-116; test: Induction of cell cycle arrest in human HCT-116 cells assessed as accumulation of cells at G2/M phase at 5 uM incubated for 24 hrs in presence of IR-4 Gy by PI staining based flow cytometric analysis (reference value: 29.00 %); format: functional
[19] = tested on: HCT-116; test: Induction of ROS generation in human HCT-116 cells assessed as fold increase in ROS level at 5 uM in presence of IR 4 Gy by DCFH-DA staining based ELISA; format: functional
[20] = tested on: HCT-116; test: Induction of cell cycle arrest in human HCT-116 cells assessed as accumulation of cells at S phase at 5 uM incubated for 24 hrs in presence of IR-4 Gy by PI staining based flow cytometric analysis (reference value: 13.71%); format: functional
[21] = tested on: HCT-116; test: Induction of apoptosis in human HCT-116 cells assessed as early apoptotic cells at 5 uM incubated for 24 hrs in presence of IR-4 Gy by AnnexinV-FITC/PI staining based flow cytometry (reference value: 4.88%); format: functional
[22] = tested on: HCT-116; test: Induction of cell cycle arrest in human HCT-116 cells assessed as accumulation of cells at S phase at 5 uM incubated for 24 hrs by PI staining based flow cytometric analysis (reference value: 17.14%); format: functional
[23] = tested on: HCT-116; test: Induction of apoptosis in human HCT-116 cells assessed as viable cells at 5 uM incubated for 24 hrs in presence of IR-4 Gy by AnnexinV-FITC/PI staining based flow cytometry (reference value: 94.08%); format: functional; details: read-out: Activity
[24] = tested on: HCT-116; test: Radiosensitization activity in human HCT-116 cells assessed as combination index at 0.25 uM incubated for 24 hrs in presence of IR-5 Gy by crystal violet staining based colony formation assay; format: functional
[25] = tested on: HCT-116; test: Induction of ROS generation in human HCT-116 cells at 5 to 10 uM in presence of IR 4 Gy by DCFH-DA staining based ELISA; format: functional, cell-based; details: dose 5-10 µM
[26] = tested on: HCT-116; test: Inhibition of colony formation in human HCT-116 cells at 0.25 uM incubated for 24 hrs by crystal violet staining based colony formation assay relative to control; format: functional
[27] = tested on: HCT-116; test: Induction of DNA damage in human HCT-116 cells assessed as increase in gamma-H2AX fluorescence intensity at 10 uM incubated for 6 hrs by DAPI staining based immunofluorescence microscopic analysis; format: functional, cell-based
[28] = tested on: HCT-116; test: Radiosensitization activity in human HCT-116 cells assessed as cell killing at 0.25 uM incubated for 24 hrs in presence of IR-5 Gy by crystal violet staining based colony formation assay relative to control; format: functional
[29] = tested on: HCT-116; test: Cytotoxicity against human HCT-116 cells at 0.5 uM incubated for 72 hrs by CCK-8 assay; format: functional, cell-based
[30] = tested on: HCT-116; test: Radiosensitizing activity in human HCT-116 cells assessed as cell killing at 0.5 uM co-treated with IR-2 Gy incubated for 72 hrs by CCK-8 assay (reference value: 37%); format: functional

Sequence of Tyrosyl-DNA phosphodiesterase 1 (Homo sapiens) (Q9NUW8 whole entry): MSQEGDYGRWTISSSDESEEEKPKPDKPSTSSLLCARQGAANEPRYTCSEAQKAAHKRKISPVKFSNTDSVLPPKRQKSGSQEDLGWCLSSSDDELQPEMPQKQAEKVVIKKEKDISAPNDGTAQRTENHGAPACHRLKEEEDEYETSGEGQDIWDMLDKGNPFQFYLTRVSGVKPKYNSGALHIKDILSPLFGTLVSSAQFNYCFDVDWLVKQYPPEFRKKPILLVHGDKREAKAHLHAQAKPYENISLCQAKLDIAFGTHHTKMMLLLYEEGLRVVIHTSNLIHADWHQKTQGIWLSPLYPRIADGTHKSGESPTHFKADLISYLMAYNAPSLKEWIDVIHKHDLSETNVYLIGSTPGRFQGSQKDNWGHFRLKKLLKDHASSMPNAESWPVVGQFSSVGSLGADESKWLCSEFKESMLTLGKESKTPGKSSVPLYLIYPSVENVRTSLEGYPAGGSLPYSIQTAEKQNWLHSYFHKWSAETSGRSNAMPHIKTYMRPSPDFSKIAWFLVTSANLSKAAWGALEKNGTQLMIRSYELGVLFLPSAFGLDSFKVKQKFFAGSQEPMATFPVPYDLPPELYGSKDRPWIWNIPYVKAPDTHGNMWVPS

In the case of `COc1cc2c(Nc3ccc(C(=O)N4CCOCC4)cc3)nc3c4c(ccc3c2cc1OC)OCO4`, the GI50 [1] is reported as 5.26 µM and the inhibition [2] is reported as “inactive”.
In the case of `COc1cc2c(=O)n(CCN3CCN(C)CC3)c3c4c(ccc3c2cc1OC)OCO4`, the GI50 [1] is reported as 9.95 µM and the inhibition [2] is reported as “inactive”.
`COc1cc2c(=O)n(CCn3cccn3)c3c4c(ccc3c2cc1OC)OCO4` was tested, and the GI50 [1] was greater than 100 µM and the inhibition [2] was “inactive”.
In the case of `COc1cc2c(=O)n(CCN(C)C)c3c4c(ccc3c2cc1OC)OCO4`, the Activity [3] is reported as roughly 100%, the GI50 [1] is reported as 0.55 µM and the inhibition [2] is reported as “inactive”.
For `COc1cc2c(OCCN(C)C)nc3c4c(ccc3c2cc1OC)OCO4`, the Activity [3] was roughly 100%, the GI50 [1] was 0.32 µM and the inhibition [2] was “inactive”.
For `COc1cc2c(Nc3ccc(C(=O)N4CCC(OC)CC4)cc3)nc3c4c(ccc3c2cc1OC)OCO4`, the GI50 [1] was 2.76 µM and the inhibition [2] was “inactive”.
For `COc1cc2c(=O)n(CC(=O)N3CCOCC3)c3c4c(ccc3c2cc1OC)OCO4`, the GI50 [1] was 54.2 µM and the inhibition [2] was “inactive”.
For `COc1cc2c(=O)n(CCn3cccc3)c3c4c(ccc3c2cc1OC)OCO4`, the GI50 [1] was 17.3 µM and the inhibition [2] was “inactive”.
With `COc1cc2c(=O)n(CCN3CCCC3)c3c4c(ccc3c2cc1OC)OCO4` the Activity [3] was roughly 100%, the GI50 [1] was 0.56 µM and the inhibition [2] was “inactive”.
For `COc1cc2c(N3CCN(c4ncccn4)CC3)nc3c4c(ccc3c2cc1OC)OCO4`, the GI50 [1] was 6.08 µM, the Activity [4] was 23.41% and the Activity [5] was “inactive”. The “fold change (FC)” value [6] was 1.8, the Activity [7] was 3.11% and the Activity [8] was 1.75%. For the same compound, the Activity [9] was “Active”, the viability at 5 µM [10] was 95.2% and the Activity [11] was 36.95%. For the same compound, the Activity [12] was 2.1%, the Activity [13] was “Dose-dependent-effect” and the viability at 0.5 µM [14] was 64%. The CI [15] was 0.4, the Activity [16] was less than 20% and the Activity [17] was 37.67%. The Activity [18] was 43.16%, the “fold change (FC)” value [19] was 1.4 and the inhibition [2] was “inactive”. The Activity [20] was 22.09%, the Activity [21] was 7.21% and the Activity [22] was 23.9%. For the same compound, the viability at 5 µM [23] was 89.4%, the CI [24] was 0.29 and the Activity [25] was “Active”. For the same compound, the inhibition at 0.25 µM [26] was 30%, the Activity [27] was “Active” and the Activity [28] was roughly 99%.
With `COc1cc2c(Nc3ccc(C(=O)N(C)C)cc3)nc3c4c(ccc3c2cc1OC)OCO4` the GI50 [1] was 7.79 µM and the inhibition [2] was “inactive”.
For `COc1cc2c(NCCN3CCCC3)nc3c4c(ccc3c2cc1OC)OCO4`, the GI50 [1] was 2.11 µM, the viability at 0.5 µM [14] was roughly 80% and the Activity [16] was “Active”. For the same compound, the inhibition [2] was “inactive”.
For `COc1cc2c(=O)n(CCN3CCOCC3)c3c4c(ccc3c2cc1OC)OCO4`, the GI50 [1] was 3.22 µM and the inhibition [2] was “inactive”.
`COc1cc2c(NCCN(C)C)nc3c4c(ccc3c2cc1OC)OCO4` was tested, and the Activity [3] was roughly 100%, the GI50 [1] was 0.47 µM and the inhibition [2] was “inactive”.
`COc1cc2c(=O)n(CCc3cccs3)c3c4c(ccc3c2cc1OC)OCO4` was tested, and the GI50 [1] was 44.8 µM and the inhibition [2] was “inactive”.
With `COc1cc2c(OCCN3CCCC3)nc3c4c(ccc3c2cc1OC)OCO4` the Activity [3] was roughly 100%, the GI50 [1] was 0.31 µM and the inhibition [2] was “inactive”.
`COc1cc2c(NCCN3CCN(C)CC3)nc3c4c(ccc3c2cc1OC)OCO4` was tested, and the GI50 [1] was 0.85 µM and the inhibition [2] was “inactive”.
In the case of `COc1cc2c(=O)n(Cc3ccc(C(=O)O)cc3)c3c4c(ccc3c2cc1OC)OCO4`, the GI50 [1] is reported as greater than 100 µM and the inhibition [2] is reported as “inactive”.
With `COc1cc2c(Nc3ccc(C(=O)N4CCN(C)CC4)cc3)nc3c4c(ccc3c2cc1OC)OCO4` the GI50 [1] was 3.32 µM and the inhibition [2] was “inactive”.
For `COc1cc2c(=O)n(CCN3CCCCC3)c3c4c(ccc3c2cc1OC)OCO4`, the Activity [29] was “inactive”, the GI50 [1] was 0.81 µM and the Activity [30] was 55%. For the same compound, the inhibition [2] was “inactive”.
`COc1ccc(Cn2c(=O)c3cc(OC)c(OC)cc3c3ccc4c(c32)OCO4)cc1` was tested, and the GI50 [1] was greater than 100 µM and the inhibition [2] was “inactive”.
For `COc1cc2c(OCCN3CCN(C)CC3)nc3c4c(ccc3c2cc1OC)OCO4`, the GI50 [1] was 7.88 µM and the inhibition [2] was “inactive”.
With `COc1cc2c(=O)n(Cc3ccc(OC(F)(F)F)cc3)c3c4c(ccc3c2cc1OC)OCO4` the GI50 [1] was 4.79 µM and the inhibition [2] was “inactive”.
For `COc1cc2c(=O)n(CCNC(=O)OC(C)(C)C)c3c4c(ccc3c2cc1OC)OCO4`, the GI50 [1] was greater than 100 µM and the inhibition [2] was “inactive”.
For `COc1cc2c(Nc3ccc(C(=O)N4CCCC4)cc3)nc3c4c(ccc3c2cc1OC)OCO4`, the GI50 [1] was 1.46 µM and the inhibition [2] was “inactive”.
